Measured values as given in PMC8869984, “Multifunctional Silver(I) Complexes with Metronidazole Drug Reveal Antimicrobial Properties and Antitumor Activity against Human Hepatoma and Colorectal Adenocarcinoma Cells” (Cancers, 2022).

Legend:
HepG2 cells = test: LDH leakage assay (membrane integrity), 72 h exposure; assay type: cell-based, human; conditions: Figure 6
Experimental: (§1) The human hepatoma (HepG2) and colorectal adenocarcinoma (Caco-2) cells were purchased from the American Type Culture Collection: ATCC HB-8065 and ATCC HTB-37, respectively. These cells were cultured in Minimum Essential Medium Eagle (MEME) (ATCC). The murine fibroblasts cell line (Balb/c 3T3 clone A31) (gift from the Department of Swine Diseases of the National Veterinary Research Institute in Pulawy) was cultured in Dulbecco’s Modified Eagle Medium (DMEM) (ATCC). The media were supplemented with 10% BCS (Balb/c 3T3), 10% FBS (HepG2), 20% FBS (Caco-2), 1% L-glutamine, 1% antibiotic solution. The cells were maintained in 75 cm^2 cell culture flasks (NUNC) in a humidified incubator at 37 °C in an atmosphere of 5% CO2. The medium was refreshed every two or three days, and the cells were trypsinized by 0.25% trypsin–0.02% EDTA after reaching 70–80% confluence. Single cell suspensions were prepared and adjusted to a density of 2 × 10^5 cell/mL^−1 (HepG2), 1 × 10^5 cell/mL^−1 (Caco-2) and 5 × 10^4 cell/mL^−1 (Balb/c 3T3). The cell suspension was transferred to 96-well plates (100 µL/well) and incubated for 24 h before the exposure to the studied compounds. Stock solutions of ligands and metal complexes were prepared in sterile water and diluted with culture medium to obtain a concentration range from 0.1 to 10 µM. The final concentration of sterile water was 0.1% in the medium. […] As a negative control, cultured cells were grown in the absence of studied compounds. Each concentration was tested in six replicates in three independent experiments. Cytotoxicity was assessed after 72 h of exposure of the cells to compounds. The medium was not changed during the incubation time.
The integrity of the plasma membrane was assessed through the test of lactate dehydrogenase (LDH) release, which was monitored using the commercially available Cytotoxicity Detection Kit (LDH) (Roche Diagnostics, Warsaw, Poland). […] The absorbance was measured at 492 nm in a microplate reader Synergy HTX multi-mode reader (BioTek® Instruments Inc., Winooski, VT, USA) using a blank as a reference. […]

Balb/c 3T3 cells = test: NRU assay (lysosomal activity), 72 h exposure; assay type: cell-based, murine; conditions: Balb/c 3T3, NRU, Figure 6
Experimental: as §1
This method is based on staining living cells with neutral red, which readily diffuses through the plasma membrane and accumulates in lysosomes. […] After 10 min of shaking, the absorbance of the dissolved NR was measured using a Synergy HTX multi-mode reader (BioTek® Instruments Inc., Winooski, VT, USA) at 540 nm using a blank as a reference. Cytotoxicity was expressed as a percentage of the negative control. […]

[1] = system: S. epidermidis ATCC 12228; test: micro-dilution broth method (MIC, MBC); assay type: cell-based, Staphylococcus epidermidis
B. subtilis ATCC 6633 = test: micro-dilution broth method (MIC, MBC); assay type: cell-based, Bacillus subtilis
A. israeli ATCC 10049 = test: micro-dilution broth method (MIC, MBC); assay type: cell-based, Actinomyces israelii
[2] = system: C. perfringens ATCC 13124; test: microbe, parasite or virus in culture; assay type: cell-based, Clostridium perfringens
C. jejunii ATCC 33291 = test: micro-dilution broth method (MIC, MBC); assay type: cell-based, Campylobacter jejunii
K. pneumoniae ATCC 13883 = test: micro-dilution broth method (MIC, MBC); assay type: cell-based, Klebsiella pneumoniae
P. aeruginosa ATCC 9027 = test: micro-dilution broth method (MIC, MBC); assay type: cell-based, Pseudomonas aeruginosa
B. fragilis ATCC 10240 = test: micro-dilution broth method (MIC, MBC); assay type: cell-based, Bacteroides fragilis
P. intermedia ATCC 25611 = test: micro-dilution broth method (MIC, MBC); assay type: cell-based
F. nucleatum ATCC 25586 = test: micro-dilution broth method (MIC, MBC); assay type: cell-based, Fusobacterium nucleatum
[3] = S. epidermidis ATCC 12228, value in brackets
[4] = B. subtilis ATCC 6633, value in brackets
[5] = A. israeli ATCC 10049, value in brackets
[6] = C. perfringens ATCC 13124, value in brackets
[7] = C. jejunii ATCC 33291, value in brackets
[8] = K. pneumoniae ATCC 13883, value in brackets
[9] = P. aeruginosa ATCC 9027, value in brackets
[10] = B. fragilis ATCC 10240, value in brackets
[11] = P. intermedia ATCC 25611, value in brackets
[12] = F. nucleatum ATCC 25586, value in brackets

Which results are given for `Cc1ncc([N+](=O)[O-])n1CCO.Cc1ncc([N+](=O)[O-])n1CCO.Cc1ncc([N+](=O)[O-])n1CCO.Cc1ncc([N+](=O)[O-])n1CCO.O=S(=O)([O-])[O-].[Ag+].[Ag+]` [[Ag(MTZ)2]2SO4]?
lowest concentration with significant (p ≤ 0.05) effect (HepG2 cells): 5.0 µM; lowest concentration with significant (p ≤ 0.05) effect (Balb/c 3T3 cells): 5.0 µM; MBC ([1]; S. epidermidis ATCC 12228): 15.6 mg/L; MIC ([1]; S. epidermidis ATCC 12228): 7.8 mg/L; MBC [1, 3]: 0.014 µM/mL; MIC [1, 3]: 0.007 µM/mL; MBC (B. subtilis ATCC 6633; B. subtilis ATCC 6633): 15.6 mg/L; MIC (B. subtilis ATCC 6633; B. subtilis ATCC 6633): 15.6 mg/L; MBC (B. subtilis ATCC 6633; [4]): 0.014 µM/mL; MIC (B. subtilis ATCC 6633; [4]): 0.014 µM/mL; MBC (A. israeli ATCC 10049; A. israeli ATCC 10049): 15.6 mg/L; MIC (A. israeli ATCC 10049; A. israeli ATCC 10049): 7.8 mg/L; MBC (A. israeli ATCC 10049; [5]): 0.014 µM/mL; MIC (A. israeli ATCC 10049; [5]): 0.007 µM/mL; MBC ([2]; C. perfringens ATCC 13124): 3.9 mg/L; MIC ([2]; C. perfringens ATCC 13124): 1.95 mg/L; MBC [2, 6]: 0.004 µM/mL; MIC [2, 6]: 0.002 µM/mL; MBC (C. jejunii ATCC 33291; C. jejunii ATCC 33291): 500 mg/L; MBC (C. jejunii ATCC 33291; [7]): 0.46 µM/mL; MIC (C. jejunii ATCC 33291; [7]): 0.23 µM/mL; MIC (C. jejunii ATCC 33291; C. jejunii ATCC 33291, listed as [Ag(MTZ)2]2SO4·5H2O): 250 mg/L; MBC (K. pneumoniae ATCC 13883; K. pneumoniae ATCC 13883): 31.3 mg/L; MIC (K. pneumoniae ATCC 13883; K. pneumoniae ATCC 13883): 15.6 mg/L; MBC (K. pneumoniae ATCC 13883; [8]): 0.03 µM/mL; MIC (K. pneumoniae ATCC 13883; [8]): 0.014 µM/mL; MBC (P. aeruginosa ATCC 9027; P. aeruginosa ATCC 9027): 15.6 mg/L; MIC (P. aeruginosa ATCC 9027; P. aeruginosa ATCC 9027): 7.8 mg/L; MBC (P. aeruginosa ATCC 9027; [9]): 0.014 µM/mL; MIC (P. aeruginosa ATCC 9027; [9]): 0.008 µM/mL; MBC (B. fragilis ATCC 10240; B. fragilis ATCC 10240): 0.98 mg/L; MIC (B. fragilis ATCC 10240; B. fragilis ATCC 10240): 0.24 mg/L; MBC (B. fragilis ATCC 10240; [10]): 0.0009 µM/mL; MIC (B. fragilis ATCC 10240; [10]): 0.0002 µM/mL; MBC (P. intermedia ATCC 25611; P. intermedia ATCC 25611): 15.6 mg/L; MIC (P. intermedia ATCC 25611; P. intermedia ATCC 25611): 0.98 mg/L; MBC (P. intermedia ATCC 25611; [11]): 0.014 µM/mL; MIC (P. intermedia ATCC 25611; [11]): 0.0009 µM/mL; MBC (F. nucleatum ATCC 25586; F. nucleatum ATCC 25586): 0.49 mg/L; MIC (F. nucleatum ATCC 25586; F. nucleatum ATCC 25586): 0.49 mg/L; MBC (F. nucleatum ATCC 25586; [12]): 0.0004 µM/mL; MIC (F. nucleatum ATCC 25586; [12]): 0.0004 µM/mL
